Experiments:
[1] = test system: human KOR; experiment: Bias analysis by fitting to the operational model; conditions: relative to U69,593; for ΔΔLogR(G−ERK): G protein coupling vs ERK1/2 phosphorylation; for ΔΔLogR(G−ERK) / ΔΔLogR(G−βarr2): ± SEM; for ΔΔLogR(G−βarr2): G protein coupling vs βarrestin2 recruitment; for bias factor (10^ΔΔLogR) G/ERK: antilog of ΔΔLogR(G−ERK); for bias factor (10^ΔΔLogR) G/βarr2: antilog of ΔΔLogR(G−βarr2)
[2] = molecular target: T1, human KOR (Homo sapiens, UniProt P41145); experiment: In-cell western ERK1/2 phosphorylation in CHO-hKOR cells; type: cell-based
[3] = molecular target: T1, human KOR; experiment: βarrestin2 recruitment, high content imaging in U2OS-hKOR-βarr2-GFP cells; type: cell-based
[4] = molecular target: T1, human KOR; experiment: [35S]GTPγS coupling; type: biochemical

T1 sequence (P41145 whole entry): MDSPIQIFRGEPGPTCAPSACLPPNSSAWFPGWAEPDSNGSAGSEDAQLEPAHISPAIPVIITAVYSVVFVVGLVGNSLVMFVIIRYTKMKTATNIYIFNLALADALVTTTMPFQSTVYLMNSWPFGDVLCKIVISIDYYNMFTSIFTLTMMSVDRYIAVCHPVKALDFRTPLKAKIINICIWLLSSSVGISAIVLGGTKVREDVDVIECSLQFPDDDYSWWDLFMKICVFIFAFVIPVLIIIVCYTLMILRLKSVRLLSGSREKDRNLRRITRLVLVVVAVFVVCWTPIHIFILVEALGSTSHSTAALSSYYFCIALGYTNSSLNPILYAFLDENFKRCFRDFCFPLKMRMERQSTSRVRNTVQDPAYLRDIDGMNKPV

SMILES | ΔΔLogR(G−ERK) [1] | ΔΔLogR(G−βarr2) [1] | bias factor (10^ΔΔLogR) G/ERK [1] | bias factor (10^ΔΔLogR) G/βarr2 [1] | EC50 [2] [nM] | ERK1/2 phosphorylation % U69,593 at 10 μM [2] | ERK1/2 phosphorylation EMAX, % of max U69,593 [2] | EC50 [3] [nM] | βarrestin2 assay % U69,593 at 10 μM [3] | EC50 [4] [nM] | G protein assay EMAX, % of max U69,593 [4] | βarrestin2 assay EMAX, % of max U69,593 [3]
Brc1ccc(CSc2nnc(-c3ccccn3)n2Cc2cccnc2)cc1 [3.3, 2-(5-((4-Bromobenzyl)thio)-4-(pyridin-3-ylmethyl)-4H-1,2,4-triazol-3-yl)pyridine] | 1.1 ± 0.19 | 1.6 ± 0.22 | 14 | 37 | 227 ± 40.1 | 112 ± 6 % U69,593 | 117 ± 7 % of max U69,593 | > 31000 | 10 ± 7 % U69,593 | 149 ± 11.5 | 94 ± 4 % of max U69,593 | –
FC(F)(F)c1ccc(Cl)c(CSc2nnc(-c3ccccn3)n2Cc2cccnc2)c1 [1.3, 2-(5-((2-Chloro-5-(trifluoromethyl)benzyl)thio)-4-(pyridin-3-ylmethyl)-4H-1,2,4-triazol-3-yl)pyridine] | 1.0 ± 0.19 | 1.2 ± 0.20 | 9 | 15 | 108 ± 24.5 | 107 ± 7 % U69,593 | 114 ± 8 % of max U69,593 | 10100 ± 3250 | 38 ± 5 % U69,593 | 115 ± 8.9 | 97 ± 1 % of max U69,593 | 65 ± 6 % of max U69,593
Ic1ccc(CSc2nnc(-c3ccccn3)n2Cc2cccnc2)cc1 [2.3, 2-(5-((4-Iodobenzyl)thio)-4-(pyridin-3-ylmethyl)-4H-1,2,4-tri-azol-3-yl)pyridine] | 1.2 ± 0.22 | 1.4 ± 0.22 | 16 | 25 | – | 110 ± 8 % U69,593 | 109 ± 6 % of max U69,593 | – | 46 ± 3 % U69,593 | – | 98 ± 3 % of max U69,593 | 101 ± 7 % of max U69,593
FC(F)(F)c1ccc(Cl)c(CSc2nnc(-c3ccccn3)n2Cc2ccco2)c1 [1.1, 2-(5-((2-Chloro-5-(trifluoromethyl)benzyl)thio)-4-(furan-2-yl-methyl)-4H-1,2,4-triazol-3-yl)pyridine] | 2.0 ± 0.19 | 1.7 ± 0.19 | 93 | 47 | 242 ± 46.9 | 114 ± 7 % U69,593 | 120 ± 10 % of max U69,593 | 8720 ± 2180 | 29 ± 5 % U69,593 | 31.8 ± 6.4 | 98 ± 1 % of max U69,593 | 56 ± 5 % of max U69,593
Brc1ccc(CSc2nnc(-c3ccccn3)n2Cc2cccs2)cc1 [3.2, 2-(5-((4-Bromobenzyl)thio)-4-(thiophen-2-ylmethyl)-4H-1,2,4-triazol-3-yl)pyridine] | 1.7 ± 0.22 | 0.9 ± 0.22 | 46 | 7 | 672 ± 113 | 135 ± 8 % U69,593 | 149 ± 13 % of max U69,593 | 1940 ± 90.9 | 87 ± 3 % U69,593 | 66.6 ± 15.1 | 98 ± 1 % of max U69,593 | 94 ± 2 % of max U69,593
Ic1ccc(CSc2nnc(-c3ccccn3)n2Cc2ccco2)cc1 [2.1, 2-(5-((4-Iodobenzyl)thio)-4-(furan-2-ylmethyl)-4H-1,2,4-triazol-3-yl)pyridine] | 1.9 ± 0.19 | 1.7 ± 0.19 | 88 | 49 | 222 ± 22.9 | 113 ± 8 % U69,593 | 131 ± 10 % of max U69,593 | 13500 ± 8290 | 105 ± 2 % U69,593 | 30.3 ± 4.5 | 95 ± 1 % of max U69,593 | 228 ± 96 % of max U69,593
Brc1ccc(CSc2nnc(-c3ccccn3)n2Cc2ccco2)cc1 [3.1, 2-(5-((4-Bromobenzyl)thio)-4-(furan-2-ylmethyl)-4H-1,2,4-tri-azol-3-yl)pyridine] | 1.7 ± 0.20 | 1.2 ± 0.20 | 47 | 17 | 340 ± 25.1 | 114 ± 4 % U69,593 | 125 ± 2 % of max U69,593 | > 31000 | 58 ± 8 % U69,593 | 84.7 ± 18.4 | 91 ± 3 % of max U69,593 | –
Ic1ccc(CSc2nnc(-c3ccccn3)n2Cc2cccs2)cc1 [2.2, 2-(5-((4-Iodobenzyl)thio)-4-(thiophen-2-ylmethyl)-4H-1,2,4-triazol-3-yl)pyridine] | 2.5 ± 0.19 | 1.5 ± 0.19 | 304 | 33 | 789 ± 159 | 131 ± 4 % U69,593 | 143 ± 4 % of max U69,593 | 3570 ± 680 | 94 ± 9 % U69,593 | 40.3 ± 8.5 | 100 ± 1 % of max U69,593 | 123 ± 19 % of max U69,593
FC(F)(F)c1ccc(Cl)c(CSc2nnc(-c3ccccn3)n2Cc2cccs2)c1 [1.2, 2-(5-((2-Chloro-5-(trifluoromethyl)benzyl)thio)-4-(thiophen-2-ylmethyl)-4H-1,2,4-triazol-3-yl)pyridine] | 2.6 ± 0.19 | – | 419 | 122 | 594 ± 115 | 128 ± 6 % U69,593 | 139 ± 9 % of max U69,593 | 6250 ± 1440 | 94 ± 8 % U69,593 | 27.2 ± 3.5 | 98 ± 1 % of max U69,593 | 147 ± 25 % of max U69,593

From publication PMC4830356 (ACS chemical neuroscience, 2015)
